In article PMC8222254, “Self-assembly of an anion receptor with metal-dependent kinase inhibition and potent in vitro anti-cancer properties” (Nature Communications, 2021):
Values joined by “and” are separate entries in the source; they are usually repeats but may differ in a detail not shown here. Equal entries are not always repeated. Where two headings read alike, the source gives them in different places.

Key:
Test in all cases: Chemosensitivity, 96 h continuous exposure, MTT assay
Format in all cases: cell-based, human
[1] = tested on: PSN1
Source text: (§1) All cell lines were purchased from and maintained as monolayers as described by the American Type Culture Collection with the exception of the p53^+/+ and p53^−/− isogenic clones of HCT116 human colorectal adenocarcinoma cells which were a kind gift from Professor Bert Vogelstein[54]. GBM1 cells were established from a primary GBM tumour by Heiko Wurdak and colleagues[32],[33]. Non-cancerous adult brain neural progenitor (NP1) cells were derived from a patient undergoing surgery to treat epilepsy[32],[33]. Cell culture and growth media for NP1 and GBM1 cells were as described[32],[33]. The response of cells following a continuous 96-h exposure to test compounds and platinates was determined using the MTT assay. Potency was recorded as the IC50 and the selectivity index (SI) was defined as the ratio of IC50 values for non-cancer to cancer cell lines with values >1 representing selectivity for cancer cells as opposed to non-cancer cells.
(§2) All cell lines used were maintained at low passage in antibiotic-free media. HT29, DLD-1, HCT116 p53^+/+ and HCT116 p53^−/− are all colorectal adenocarcinoma cell lines derived from different individuals and harbour different combinations of oncogenic lesions (except for the HCT116 isogenic cancer cell clones that are genetically identical except for p53 status). PSN-1, BxPC-3 and MiaPaCa2 are pancreatic carcinoma cell lines and A549 and H460 are lung carcinoma cell lines. HT29, DLD-1, PSN-1, BxPC-3, A549 and H460 cell lines were cultured in RPMI-1640 growth media (Sigma) containing 2 mM L-glutamine, 1 mM sodium pyruvate and 10% foetal bovine serum (FBS). HCT116 (p53^+/+ and p53^−/−) and MiaPaCa2 cell lines were cultured in Dulbecco’s Modified Eagle’s Medium (Sigma), 2 mM L-glutamine and 10% FBS. The ARPE-19 retinal epithelial non-cancer cell line was cultured in DMEM/F12 media (Gibco), 2 mM L-glutamine, 1 mM sodium pyruvate and 10% FBS. The MCF10A non-cancerous human breast epithelial cell line was cultured in Minimal Essential Media Eagle (Sigma), 2 mM L-glutamine, 1 mM sodium pyruvate, 10% FBS and 1x non-essential amino acids (NEAA). NP1 and GBM1 cells were cultured on plasticware coated with poly-L-ornithine (5 µg/ml) and laminin (2.4 µg/ml)[32],[33]. NP1 cells were grown in DMEM/F12 media (Gibco) supplemented with 5% FBS, 20 ng/ml hFGF, 20 ng/ml rhEGF, 0.5x B-27 supplement (Gibco), 0.5x N-2 supplement (Gibco) and 1x GLUTAMAX (Gibco). GBM1 cells were cultured in Neurobasal media (Gibco) supplemented with 40 ng/ml hFGF, 40 ng/ml rhEGF, 0.5x B-27 supplement (Gibco) and 0.5x N-2 supplement (Gibco).
(§3) [L2(Metal)3]^6+ and all the other self-assembling complexes were freshly formed by adding DMSO to individual components and mixing together by pipetting. These were then further diluted in cell culture media such that the final DMSO concentration that cells were exposed to was 0.2% (vehicle control). Cisplatin, oxaliplatin and carboplatin were dissolved in phosphate buffered saline. Cell lines were seeded into 96 well plates at 2 × 10^3 cells per well and incubated overnight at 37 °C. GBM1 cancer stem-like cells were seeded at 3 × 10^3 cells per well and NP1 neural progenitors were seeded at 1.5 × 10^3 cells per well. The following day, media was removed and replaced with fresh media containing test compounds at a range of concentrations. Cells were incubated with test compounds for a further 96 h after which the media was removed and replaced with fresh media (200 μl/well). MTT was added (20 μl at 5 mg/ml) and cells were incubated for a further 4 h. Media and MTT were removed and formazan crystals were dissolved in 150 μl of DMSO and the absorbance of the resulting solution determined at 540 nm. Dose response curves were constructed, and the concentration required to reduce cell growth by 50% (IC50) determined.

[2] = tested on: A549
Source text: as §1, §2, §3

[3] = tested on: HCT116 p53+/+
Source text: as §1, §2, §3

[4] = tested on: BxPC3
Source text: as §1, §2, §3

CC(=O)[O-].CC(=O)[O-].CC(=O)[O-].CC(=O)[O-].CC(=O)[O-].CC(=O)[O-].[Zn+2].[Zn+2].[Zn+2].c1ccc(-c2csc(NCCN(CCNc3nc(-c4ccccn4)cs3)CCNc3nc(-c4ccccn4)cs3)n2)nc1.c1ccc(-c2csc(NCCN(CCNc3nc(-c4ccccn4)cs3)CCNc3nc(-c4ccccn4)cs3)n2)nc1 [[L2Zn3]6+]
Relative potency (+ anion to no anion), Ratio + anion:no anion ([1]; ratio of IC50, PSN1): 1
Selectivity indices relative to ARPE-19, Ratio + anion:no anion ([1]; ratio of SI (ARPE-19), PSN1): 1
Selectivity indices relative to MCF10A, Ratio + anion:no anion ([1]; ratio of SI (MCF 10A), PSN1): 1
IC50 ([2]; A549, 96 h, MTT, individual run, read-out: IC50 values for each replicate): 161 nM and 257 nM and 503 nM and 692 nM
IC50 ([2]; A549, 96 h, MTT, mean of at least 3 independent experiments, read-out: Mean IC50): 403 nM
IC50 ([2]; A549, mean of replicates, read-out: Mean IC50): 403 nM
IC50 ([2]; A549, read-out: Mean IC50 values): 403 nM
Selectivity index (ARPE19) ([2]; IC50 ARPE-19 / IC50 A549): 390.20
Selectivity index (MCF10A) ([2]; IC50 MCF10A / IC50 A549): 401.09
Selectivity Index using the NPI non-cancer cell line ([2]; IC50 NP1 / IC50 A549): 19.31
SI (ARPE19) ([2]; mean IC50 ARPE-19 / mean IC50 A549): 390.20
SI (MCF10A) ([2]; mean IC50 MCF10A / mean IC50 A549): 401.09
SI (NPI) ([2]; mean IC50 NP1 / mean IC50 A549): 19.31
Relative potency (+ anion to no anion), Ratio + anion:no anion ([2]; ratio of IC50, A549): 1
Selectivity indices relative to ARPE-19, Ratio + anion:no anion ([2]; ratio of SI (ARPE-19), A549): 1
Selectivity indices relative to MCF10A, Ratio + anion:no anion ([2]; ratio of SI (MCF 10A), A549): 1
IC50 ([3]; HCT116 p53+/+, 96 h, MTT, mean of at least 3 independent experiments, read-out: Mean IC50): 466 nM
IC50 ([3]; HCT116 p53+/+, mean of replicates, read-out: Mean IC50): 466 nM
IC50 ([3]; HCT116 p53+/+, read-out: Mean IC50 values): 466 nM
Selectivity index (ARPE19) ([3]; IC50 ARPE-19 / IC50 HCT116 p53+/+): 337.45 and 337.23
Selectivity index (MCF10A) ([3]; IC50 MCF10A / IC50 HCT116 p53+/+): 346.87
Selectivity Index using the NPI non-cancer cell line ([3]; IC50 NP1 / IC50 HCT116 p53+/+): 16.70
SI (ARPE19) ([3]; mean IC50 ARPE-19 / mean IC50 HCT116 p53+/+): 337.45
SI (MCF10A) ([3]; mean IC50 MCF10A / mean IC50 HCT116 p53+/+): 346.87
SI (NPI) ([3]; mean IC50 NP1 / mean IC50 HCT116 p53+/+): 16.70
Relative potency (+ anion to no anion), Ratio + anion:no anion ([3]; ratio of IC50, HCT116 p53+/+): 1
Selectivity indices relative to ARPE-19, Ratio + anion:no anion ([3]; ratio of SI (ARPE-19), HCT116 p53+/+): 1
Selectivity indices relative to MCF10A, Ratio + anion:no anion ([3]; ratio of SI (MCF 10A), HCT116 p53+/+): 1
IC50 ([4]; BXPC3, mean of replicates, read-out: Mean IC50): 320 nM
IC50 ([4]; BXPC3, read-out: Mean IC50 values): 320 nM
IC50 ([4]; BxPC3, 96 h, MTT, individual run, read-out: IC50 values for each replicate): 228 nM and 147 nM and 595 nM and 533 nM and 171 nM and 249 nM
IC50 ([4]; BxPC3, 96 h, MTT, mean of at least 3 independent experiments, read-out: Mean IC50): 320 nM
Selectivity index (ARPE19) ([4]; IC50 ARPE-19 / IC50 BXPC3): 491.41
Selectivity index (MCF10A) ([4]; IC50 MCF10A / IC50 BXPC3): 505.12
Selectivity Index using the NPI non-cancer cell line ([4]; IC50 NP1 / IC50 BXPC3): 24.31
SI (ARPE19) ([4]; mean IC50 ARPE-19 / mean IC50 BxPC3): 491.41
SI (MCF10A) ([4]; mean IC50 MCF10A / mean IC50 BxPC3): 505.12
SI (NPI) ([4]; mean IC50 NP1 / mean IC50 BxPC3): 24.31
Relative potency (+ anion to no anion), Ratio + anion:no anion ([4]; ratio of IC50, BXPC3): 1
Selectivity indices relative to ARPE-19, Ratio + anion:no anion ([4]; ratio of SI (ARPE-19), BXPC3): 1
Selectivity indices relative to MCF10A, Ratio + anion:no anion ([4]; ratio of SI (MCF 10A), BXPC3): 1
